# Reference: patent publication US6875761B2 (Eisai Co., Ltd., priority 1997, dated 2005)
# Counter-ions that a name gives are not always drawn.
row,Compound,melting point
1,"CCC(O)c1ccc(-c2cc3sccc3c(N3CCN(CC)CC3)n2)cc1 (stereo not drawn) (as salt: oxalate) [Example 282, 4-(4-ethylpiperazin-1-yl)-6-[4-(1-hydroxypropyl)phenyl]thieno-[3,2-c]pyridine oxalate]",130 to 131 °C
2,"CCN1CCN(c2nc(-c3ccc(OCCO)cc3)cc3ccoc23)CC1 (as salt: oxalate) [Example 301, 7-(1-Ethylpiperazin-4-yl)-5-[4-(2-hydroxyethoxy)phenyl]furo[2,3-c]pyridine oxalate]",145 to 152 °C
3,"CCN1CCN(Cc2nc(-c3ccc(OC)cc3)cc3ccccc23)CC1 (as salt: oxalate) [Example 328, 3-(4-methoxyphenyl)-1-(4-ethylpiperazin-1-yl)methylisoquinoline oxalate]",219 to 221 °C
4,"CCN1CCN(c2nc(Sc3ccccc3)cc3ccccc23)CC1 (as salt: oxalate) [Example 374, 1-(4-ethylpiperazin-1-yl)-3-(phenylthio)isoquinoline oxalate]",181.5 to 183 °C
5,"CCN1CCN(c2nc(-c3ccc(CC(C)O)cc3)cc3ccccc23)CC1 (stereo not drawn) (as salt: oxalate) [Example 376, 1-(4-ethylpiperazin-1-yl)-3-[4-(2-hydroxypropyl)phenyl]isoquinoline oxalate]",174 to 176 °C
6,"CCN1CCN(c2nc(-c3ccc(CC(C)(C)O)cc3)cc3ccccc23)CC1 (as salt: oxalate) [Example 377, 1-(4-Ethylpiperazin-1-yl)-3-[4-(2-Hydroxy-2-Methylpropyl)Phenyl]Isoquinoline Oxalate]",184 to 186 °C (dec.)
7,"CCN1CCN(c2nc(Sc3ccccn3)cc3ccccc23)CC1 (as salt: oxalate) [Example 378, 1-(4-Ethylpiperazin-1-yl)-3-(2-Pyridylthio)Isoquinoline Oxalate]",178 to 181 °C (dec.)
8,"CCC/C(=N\O)c1ccc(-c2cc3ccccc3c(N3CCN(CC)CC3)n2)cc1 (as salt: oxalate) [Example 380, 1-(4-Ethylpiperazin-1-yl)-3-[4-(1-Hydroxyiminobutyl)Phenyl]Isoquinoline]",179.5 to 180 °C
9,CCCN(C)C(=O)c1ccc(-c2cc3ccccc3c(N3CCN(CC)CC3)n2)cc1 (as salt: oxalate) [Example 381],131 to 132 °C
10,"CCN1CCN(c2nc(-c3ccc(C(=O)N(C)CCO)cc3)cc3ccccc23)CC1 (as salt: oxalate) [Example 382, 1-(4-Ethylpiperazin-1-yl)-3-{4-[N-(2-Hydroxyethyl)-N-Methylcarbamoyl]Phenyl}Isoquinoline]",116 to 118 °C
11,"CCN1CCN(c2nc(-c3ccc(C(C)CCO)cc3)cc3ccccc23)CC1 (stereo not drawn) (as salt: oxalate) [Example 383, 1-(4-Ethylpiperazin-1-yl)-3-[4-(3-Hydroxy-1-Methylpropyl)Phenyl]Isoquinoline Oxalate]",106 to 108 °C
12,"CCN1CCN(c2nc(-c3ccc(CC(C)CO)cc3)cc3ccccc23)CC1 (stereo not drawn) (as salt: oxalate) [Example 386, 1-(4-Ethylpiperazin-1-yl)-3-[4-(3-Hydroxy-2-Methylpropyl)Phenyl]Isoquinoline Oxalate]",195 to 196 °C
13,"CCN1CCN(c2nc(-c3ccc(CC(C)(C)CO)cc3)cc3ccccc23)CC1 (as salt: oxalate) [Example 389, 1-(4-Ethylpiperazin-1-yl)-3-[4-(3-Hydroxy-2,2-Dimethylpropyl)Phenyl]Isoquinoline Oxalate]",194 to 195 °C
14,CCN1CCN(c2nc(-c3ccc(C(C)(C)CCO)cc3)cc3ccccc23)CC1 (as salt: oxalate) [Example 390],134 to 135 °C
15,"CCN1CCN(c2nc(C(O)c3cccnc3)cc3ccccc23)CC1 (stereo not drawn) (as salt: oxalate) [Example 413, 1-(4-ethylpiperazin-1-yl)-3-[(3-pyridyl)hydroxymethyl]isoquinoline]",174 to 175 °C
